Test results: US20030027722A1, “Influencing the activity of plant growth regulators” (priority 1998, published 2003)

Key:
apple stalk slices = assay: rooting regeneration on apple stalk slices with elicitors; format: cell-based; conditions: roots, apple, 1 μM indolebutyric or indoleacetic acid, 1 or 3 days
Procedure: The effect of the elicitors on rooting regeneration on apple stalk slices was studied. The stalk slices were incubated on medium with elicitors in combination with a sub-optimal auxin concentration (1 μM indolebutyric acid or 1 μM indoleacetic acid) which were added for 1 or 3 days to the plant tissue for testing. The increase was measured in the number of regenerated roots compared to the auxin control.

[1] = system: Carnations (cultivar Miledy); assay: senescence of carnations after simulated dry transport; format: in vivo, carnation
Procedure: The flowers were treated for one day with silver thiosulfate (STS), t-BOC-AOA, or with water in the case of controls. The flowers were then subjected to simulated dry transport conditions: 4 days at 8° C. and a relative humidity of 75%. The bottom 5 cm of each stem was then removed, and the flowers were incubated on water for 2 hours at 8° C. and a relative humidity of 75%. The flowers were then transferred to a climate room with standard flower development conditions (20° C., relative humidity of 75%, light level of 1000 lux). Senescence of the flowers was then determined every day. If flowers started wilting (mostly at the edges of the petals) or changed color they were no longer in the category of “flowers in a perfect stage” (see Table 3).

[2] = system: rose, chrysanthemum, carnation; assay: rooting powder comparison, average over species; format: in vivo; conditions: for average category: average over the species tested; for overall assessment of rooting powders from Table 2: in vivo
Source text: (§1) d) In Table 2 standard indol butyric acid (IBA), which is the active component in most currently used rooting powders, is compared with indol hexanolic acid (IHA) and two BSA adducts, both—coupled, namely IBA and indole acetic acid (BSA-N-IAA). The effect on rooting and the plant development (stem growth, outgrowth of new shoots, synchronicity of growth of a population of plants) were inter alia factors determining the place in the categories which ranged from 1 to 6. The compounds with the best relative overall effect on rooting and development were placed in category I. Rooting and subsequent development of scions for different types of herbaceous and woody plants differs largely for those types of plants. A rose cultivar, “enermus stur cinq”, was used as an example of a recalcitrant woody plant. The chrysanthemum species “regan” is an example of an easy to root herbaceous plant.

apple = assay: roots per tissue fragment in apple; format: cell-based
Source text: An apple IAA may induce a maximum of 3.5 roots per tissue fragment, while IAA-N-BSA induces a maximum of 8 roots per tissue fragment. Very recalcitrant trees like summer oak and cork oak can be rooted to a much higher percentage than with any of the conventionally applied rooting powders. The compounds described in EXAMPLE 3 and together with elicitors in Table 1 show similar effects.

chrysanthemum = assay: rooting powder comparison, rooting and development of scions, chrysanthemum; format: in vivo; parameters: key: 1: The compounds with the best relative overall effect on rooting and development were placed in category I; categories which ranged from 1 to 6
Source text: as §1

carnation = assay: rooting powder comparison, rooting and development of scions, carnation; format: in vivo; parameters: key: 1: The compounds with the best relative overall effect on rooting and development were placed in category I; categories which ranged from 1 to 6
Source text: as §1

rose = assay: rooting powder comparison, rooting and development of scions, rose; format: in vivo; parameters: key: 1: The compounds with the best relative overall effect on rooting and development were placed in category I; categories which ranged from 1 to 6
Source text: as §1

tissue explants of rose = assay: shoot formation on tissue explants of rose; format: cell-based
Procedure: It was also observed that tissue explants of rose when treated with IBA (normal addition) or IHA, respectively, formed about 50 times more shoots (2 shoots versus 100 per 20 tissue explants) in the latter case.
In the studies for new applications of PGRs and/or elicitors, which were performed within the framework of the present invention, several new and unexpected observations were made. […] Furthermore, the inventors established that elicitors do cause a statistically significant growth retardation of all tissues, as can be illustrated for rose shoots. This effect was enhanced by PGR(s), in casu antigibberelins, i.e. paclobutrasol. […] Finally the observation was made that when tissue explants of rose were treated with respectively IBA (normal addition) or IHA, in the last case about 50 times more shoots were formed (2 shoots versus 100 per 20 tissue explants).

apple and rose = assay: root induction in apple and rose; format: in vivo
Source text: It is also possible to offer a hormone precursor, which is converted into an active hormone by metabolic processes. Indole-3-hexanoic acid (I-H-A) is converted by two beta-oxidation steps (the enzymes therefor are present in the plant) into the auxin indole-3-acetic acid (I-A-A). I-H-A is thus a special form of a slow-release source.

cut flowers (carnations) = assay: retarding the aging of cut flowers; format: in vivo, carnation; conditions: carnation
Procedure: The DMF was evaporated and the remaining solid was dissolved in methanol and filtered. Diluted hydrochloric acid was added to the methanol solution. After 2 hours at room temperature the solvent was evaporated and G-A-A was obtained.

[3] = 7 d after the start of the experiment
[4] = 8 d after the start of the experiment
[5] = 9 d after the start of the experiment
[6] = 10 d after the start of the experiment
[7] = 11 d after the start of the experiment
[8] = 12 d after the start of the experiment
[9] = 13 d after the start of the experiment
[10] = 14 d after the start of the experiment
[11] = 15 d after the start of the experiment
[12] = 16 d after the start of the experiment
[13] = 17 d after the start of the experiment
[14] = 18 d after the start of the experiment
[15] = 19 d after the start of the experiment
[16] = 20 d after the start of the experiment
[17] = 21 d after the start of the experiment
[18] = 22 d after the start of the experiment
[19] = chrys. regan (easy to root herbaceous plant)
[20] = rose enermus stur cinq (recalcitrant woody plant)

With `CC/C=C\C[C@H]1C(=O)CC[C@@H]1CC(=O)O` [jasmonic acid] the “increased regeneration in relation to control (auxin alone)” value (apple stalk slices; elicitor 0.01 μM) was 210%.
In the case of `CC(C)(C)OC(=O)NOCC(=O)O` [t-Boc-AOA, tertiair-butyloxycarbonylaminooxyacetic acid], the “Percentage of flowers in the perfect stage after treatment” value (“Percentage of flowers” below) [1, 3] is reported as 100%, the “Percentage of flowers” value [1, 4] is reported as 100% and the “Percentage of flowers” value [1, 5] is reported as 100%. The “Percentage of flowers” value [1, 6] was 100%, the “Percentage of flowers” value [1, 7] was 100% and the “Percentage of flowers” value [1, 8] was 100%. The “Percentage of flowers” value [1, 9] was 100%, the “Percentage of flowers” value [1, 10] was 100% and the “Percentage of flowers” value [1, 11] was 100%. For the same molecule, the “Percentage of flowers” value [1, 12] was 100%, the “Percentage of flowers” value [1, 13] was 85% and the “Percentage of flowers” value [1, 14] was 75%. The “Percentage of flowers” value [1, 15] was 53%, the “Percentage of flowers” value [1, 16] was 30% and the “Percentage of flowers” value [1, 17] was 4%. The “Percentage of flowers” value [1, 18] was 0% and the “delaying flower senescence, compared with STS” value ([1]; summary of Table 3) was “generally comparable to or superior to STS”.
“IAA-N-BSA: indoleacetic acid-N-conjugate with BSA” was tested, and the average category [2] was 1.8, the “overall assessment of rooting powders from Table 2” value [2] was “especially suited for recalcitrant plants” and the “maximum of roots per tissue fragment” value (apple) was 8 roots per tissue fragment. The “category of relative overall effect on rooting and plant development” value (“category of relative overall effect” for short) (chrysanthemum; [19]) was 1, the “category of relative overall effect” value (chrysanthemum; chrys. snowdon) was 2 and the “category of relative overall effect” value (carnation; carnation m. brilj.) was 1. For the same molecule, the “category of relative overall effect” value (carnation; carnation tempo) was 3, the “category of relative overall effect” value (rose; [20]) was 1 and the “category of relative overall effect” value (rose; rose n. brier) was 3.
In the case of “IBA-N-BSA: N-conjugate with BSA made with IBA instead of IAA”, the average category [2] is reported as 2.0, the “category of relative overall effect” value (chrysanthemum; [19]) is reported as 4 and the “category of relative overall effect” value (chrysanthemum; chrys. snowdon) is reported as 1. The “category of relative overall effect” value (carnation; carnation m. brilj.) was 1, the “category of relative overall effect” value (carnation; carnation tempo) was 3 and the “category of relative overall effect” value (rose; [20]) was 2. The “category of relative overall effect” value (rose; rose n. brier) was 1.
In the case of `O=C(O)CCCCCc1c[nH]c2ccccc12` [IHA, Indole-3-hexanoic acid], the average category [2] is reported as 1.33, the “overall assessment of rooting powders from Table 2” value [2] is reported as “very generally applicable and very effective” and the “category of relative overall effect” value (chrysanthemum; [19]) is reported as 2. The “category of relative overall effect” value (chrysanthemum; chrys. snowdon) was 1, the “category of relative overall effect” value (carnation; carnation m. brilj.) was 1 and the “category of relative overall effect” value (carnation; carnation tempo) was 2. The shoots formed (tissue explants of rose) was 100 shoots per 20 tissue explants, the “times more shoots than with IBA” value (tissue explants of rose) was “about 50” and the “activity in root induction relative to I-A-A” value (apple and rose) was “thirty times more active than I-A-A”. The “category of relative overall effect” value (rose; [20]) was 1 and the “category of relative overall effect” value (rose; rose n. brier) was 1.
With “silver thiosulfate [STS, reference compound]” the “Percentage of flowers” value [1, 3] was 100%, the “Percentage of flowers” value [1, 4] was 100% and the “Percentage of flowers” value [1, 5] was 100%. For the same molecule, the “Percentage of flowers” value [1, 6] was 100%, the “Percentage of flowers” value [1, 7] was 100% and the “Percentage of flowers” value [1, 8] was 100%. The “Percentage of flowers” value [1, 9] was 100%, the “Percentage of flowers” value [1, 10] was 100% and the “Percentage of flowers” value [1, 11] was 100%. The “Percentage of flowers” value [1, 12] was 100%, the “Percentage of flowers” value [1, 13] was 88% and the “Percentage of flowers” value [1, 14] was 65%. The “Percentage of flowers” value [1, 15] was 8%, the “Percentage of flowers” value [1, 16] was 0% and the “Percentage of flowers” value [1, 17] was 0%. The “Percentage of flowers” value [1, 18] was 0%.
“glucose-acetate-amino-oxyacetic acid [G-A-A]” was tested, and the effect against aging (cut flowers (carnations)) was “effective means against aging”.
`CC(=O)Nc1ccc(O)cc1` [4-acetamidophenol] was tested, and the “increased regeneration in relation to control (auxin alone)” value (apple stalk slices; elicitor 1 μM) was 75%.
